{"source": "the supplement of paper PMC9013687", "key": {"Danio rerio embryo [1]": {"test_system": "Danio rerio embryo", "test": "EC50 Eye size_Decrease", "method": "(§1)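 Zebrafish embryos (UFZ-OBI strain) were exposed from 2 hpf for 48 h (2 dpf) or 96 h (4 dpf) at 28 °C; spontaneous tail coiling was scored at 25 hpf. Morphological features from automated image analysis (FishInspector), heart rate and locomotor response were fitted with drc models. Quantal endpoints were dichotomised at 2.5 SD from controls and fitted with a log-logistic model; heart rate, pigmentation and STC were normalised to the replicate control mean. Betamethasone was tested as betamethasone dipropionate, diflorasone as diflorasone diacetate.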"}, "Danio rerio embryo [2]": {"test_system": "Danio rerio embryo", "test": "EC50 Eye-jaw distance_Decrease", "conditions": "exposure time: 4 dpf", "method": "as §1"}, "Danio rerio embryo [3]": {"test_system": "Danio rerio embryo", "test": "EC10 Pericard size_Increase; higher = less potent", "conditions": "exposure time: 4 dpf", "method": "as §1"}, "Danio rerio embryo [4]": {"test_system": "Danio rerio embryo", "test": "EC50 Head trunk angle_Decrease", "conditions": "exposure time: 2 dpf", "method": "as §1"}, "Danio rerio embryo [5]": {"test_system": "Danio rerio embryo", "test": "EC10 Eye-jaw distance_Decrease; higher = less potent", "conditions": "exposure time: 4 dpf", "method": "as §1"}, "Danio rerio embryo [6]": {"test_system": "Danio rerio embryo", "test": "EC50 Otolith-eye distance_Decrease", "conditions": "exposure time: 4 dpf", "method": "as §1"}, "Danio rerio embryo [7]": {"test_system": "Danio rerio embryo", "test": "EC20 Eye size_Decrease; higher = less potent", "method": "as §1"}, "Danio rerio embryo [8]": {"test_system": "Danio rerio embryo", "test": "EC10 Body length_Decrease; higher = less potent", "conditions": "exposure time: 2 dpf", "method": "as §1"}, "Danio rerio embryo [9]": {"test_system": "Danio rerio embryo", "test": "EC50 Curvature_Increase", "method": "as §1"}, "Danio rerio embryo [10]": {"test_system": "Danio rerio embryo", "test": "EC10 Eye size_Decrease; higher = less potent", "method": "as §1"}, "Danio rerio embryo [11]": {"test_system": "Danio rerio embryo", "test": "EC10 Bladder size_Decrease; higher = less potent", "conditions": "exposure time: 4 dpf", "method": "as §1"}, "Danio rerio embryo [12]": {"test_system": "Danio rerio embryo", "test": "EC50 Bladder size_Decrease", "conditions": "exposure time: 4 dpf", "method": "as §1"}, "Danio rerio embryo [13]": {"test_system": "Danio rerio embryo", "test": "spontaneous tail coiling frequency (coils/min/embryo); higher = more spontaneous movement", "conditions": "25 hpf", "method": "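Spontaneous tail coilings of zebrafish embryos exposed from 2 hpf were recorded at 24-25 hpf in 1-min videos and detected by a KNIME workflow from grey-value variance. Betamethasone was tested as the dipropionate, diflorasone as the diacetate.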"}, "Danio rerio embryo [14]": {"test_system": "Danio rerio embryo", "test": "EC10 Curvature_Increase; higher = less potent", "method": "as §1"}, "Danio rerio embryo [15]": {"test_system": "Danio rerio embryo", "test": "EC10 Lack of SB; higher = less potent", "conditions": "exposure time: 4 dpf", "method": "as §1"}, "Danio rerio embryo [16]": {"test_system": "Danio rerio embryo", "test": "EC20 Any effect; higher = less potent", "method": "as §1"}, "Danio rerio embryo [17]": {"test_system": "Danio rerio embryo", "conditions": "exposure time: 4 dpf", "method": "as §1"}, "Danio rerio embryo [18]": {"test_system": "Danio rerio embryo", "test": "EC50 Body length_Decrease", "conditions": "exposure time: 2 dpf", "method": "as §1"}, "Danio rerio embryo [19]": {"test_system": "Danio rerio embryo", "test": "EC20 Bladder size_Decrease; higher = less potent", "conditions": "exposure time: 4 dpf", "method": "as §1"}, "Danio rerio embryo [20]": {"test_system": "Danio rerio embryo", "method": "as §1"}, "Danio rerio embryo [21]": {"test_system": "Danio rerio embryo", "test": "EC20 Curvature_Increase; higher = less potent", "method": "as §1"}, "Danio rerio embryo [22]": {"test_system": "Danio rerio embryo", "test": "EC20 Otolith-eye distance_Decrease; higher = less potent", "conditions": "exposure time: 4 dpf", "method": "as §1"}, "Danio rerio embryo [23]": {"test_system": "Danio rerio embryo", "test": "EC10 Otolith-eye distance_Decrease; higher = less potent", "conditions": "exposure time: 4 dpf", "method": "as §1"}, "Danio rerio embryo [24]": {"test_system": "Danio rerio embryo", "test": "EC10 Any effect; higher = less potent", "method": "as §1"}, "Danio rerio embryo [25]": {"test_system": "Danio rerio embryo", "test": "EC20 Pericard size_Increase; higher = less potent", "conditions": "exposure time: 4 dpf", "method": "as §1"}, "Danio rerio embryo [26]": {"test_system": "Danio rerio embryo", "test": "EC20 Head trunk angle_Decrease; higher = less potent", "conditions": "exposure time: 2 dpf", "method": "as §1"}, "Danio rerio embryo [27]": {"test_system": "Danio rerio embryo", "test": "EC20 Eye-jaw distance_Decrease; higher = less potent", "conditions": "exposure time: 4 dpf", "method": "as §1"}, "Danio rerio embryo [28]": {"test_system": "Danio rerio embryo", "test": "EC50 Pericard size_Increase", "conditions": "exposure time: 4 dpf", "method": "as §1"}, "Danio rerio embryo [29]": {"test_system": "Danio rerio embryo", "test": "EC20 Lack of SB; higher = less potent", "conditions": "exposure time: 4 dpf", "method": "as §1"}, "Danio rerio embryo [30]": {"test_system": "Danio rerio embryo", "test": "EC10 Head trunk angle_Decrease; higher = less potent", "conditions": "exposure time: 2 dpf", "method": "as §1"}, "Danio rerio embryo [31]": {"test_system": "Danio rerio embryo", "test": "EC20 Body length_Decrease; higher = less potent", "conditions": "exposure time: 2 dpf", "method": "as §1"}}, "note": "± gives the standard deviation of the averaged measurements.", "data": [{"smiles": "COC(=O)Nc1nc2cc(Sc3ccccc3)ccc2[nH]1", "note": "[Fenbendazole]", "values": [{"measurement": "EC50 Eye size Decrease", "setting": "Danio rerio embryo [1]; exposure time: 2 dpf", "result": 51, "unit": "nM"}, {"measurement": "EC50 Eye size Decrease", "setting": "Danio rerio embryo [1]; exposure time: 4 dpf", "result": 82, "unit": "nM"}, {"measurement": "EC50 Eye-jaw distance Decrease", "setting": "Danio rerio embryo [2]", "result": 81, "unit": "nM"}, {"measurement": "EC10 Pericard size Increase", "setting": "Danio rerio embryo [3]", "result": 67, "unit": "nM"}, {"measurement": "EC50 Head trunk angle Decrease", "setting": "Danio rerio embryo [4]", "result": 41, "unit": "nM"}, {"measurement": "EC10 Eye-jaw distance Decrease", "setting": "Danio rerio embryo [5]", "result": 53, "unit": "nM"}, {"measurement": "EC50 Otolith-eye distance Decrease", "setting": "Danio rerio embryo [6]", "result": 89, "unit": "nM"}, {"measurement": "EC20 Eye size Decrease", "setting": "Danio rerio embryo [7]; exposure time: 2 dpf", "result": 37, "unit": "nM"}, {"measurement": "EC20 Eye size Decrease", "setting": "Danio rerio embryo [7]; exposure time: 4 dpf", "result": 70, "unit": "nM"}, {"measurement": "EC10 Body length Decrease", "setting": "Danio rerio embryo [8]", "result": 30, "unit": "nM"}, {"measurement": "EC50 Curvature Increase", "setting": "Danio rerio embryo [9]; exposure time: 2 dpf", "result": 38, "unit": "nM"}, {"measurement": "EC50 Curvature Increase", "setting": "Danio rerio embryo [9]; exposure time: 4 dpf", "result": 82, "unit": "nM"}, {"measurement": "EC10 Eye size Decrease", "setting": "Danio rerio embryo [10]; exposure time: 2 dpf", "result": 31, "unit": "nM"}, {"measurement": "EC10 Eye size Decrease", "setting": "Danio rerio embryo [10]; exposure time: 4 dpf", "result": 64, "unit": "nM"}, {"measurement": "EC10 Bladder size Decrease", "setting": "Danio rerio embryo [11]", "result": 45, "unit": "nM"}, {"measurement": "EC50 Bladder size Decrease", "setting": "Danio rerio embryo [12]", "result": 49, "unit": "nM"}, {"measurement": "spontaneous tail coiling frequency", "setting": "Danio rerio embryo [13]; 0.013 µM", "result": 0.94}, {"measurement": "spontaneous tail coiling frequency", "setting": "Danio rerio embryo [13]; 0.017 µM", "result": 2.28}, {"measurement": "spontaneous tail coiling frequency", "setting": "Danio rerio embryo [13]; 0.02 µM", "result": 1.96}, {"measurement": "spontaneous tail coiling frequency", "setting": "Danio rerio embryo [13]; 0.03 µM", "result": 1.28}, {"measurement": "spontaneous tail coiling frequency", "setting": "Danio rerio embryo [13]; 0.0319628 µM", "result": "4.8 ± 2.3"}, {"measurement": "spontaneous tail coiling frequency", "setting": "Danio rerio embryo [13]; 0.045 µM", "result": 1.58}, {"measurement": "spontaneous tail coiling frequency", "setting": "Danio rerio embryo [13]; 0.0477056 µM", "result": "5.09 ± 2.4"}, {"measurement": "spontaneous tail coiling frequency", "setting": "Danio rerio embryo [13]; 0.048 µM", "result": 2.73}, {"measurement": "spontaneous tail coiling frequency", "setting": "Danio rerio embryo [13]; 0.064 µM", "result": 2.5}, {"measurement": "spontaneous tail coiling frequency", "setting": "Danio rerio embryo [13]; 0.067 µM", "result": "4.88 ± 1.5"}, {"measurement": "spontaneous tail coiling frequency", "setting": "Danio rerio embryo [13]; 0.0715584 µM", "result": 6.17}, {"measurement": "spontaneous tail coiling frequency", "setting": "Danio rerio embryo [13]; 0.084 µM", "result": 2.72}, {"measurement": "spontaneous tail coiling frequency", "setting": "Danio rerio embryo [13]; 0.087 µM", "result": "4.84 ± 1.5"}, {"measurement": "spontaneous tail coiling frequency", "setting": "Danio rerio embryo [13]; 0.107 µM", "result": "4.95 ± 0.81"}, {"measurement": "EC10 Curvature Increase", "setting": "Danio rerio embryo [14]; exposure time: 2 dpf", "result": 22, "unit": "nM"}, {"measurement": "EC10 Curvature Increase", "setting": "Danio rerio embryo [14]; exposure time: 4 dpf", "result": 62, "unit": "nM"}, {"measurement": "EC10 Lack of SB", "setting": "Danio rerio embryo [15]", "result": 46, "unit": "nM"}, {"measurement": "EC20 Any effect", "setting": "Danio rerio embryo [16]; exposure time: 2 dpf", "result": 19, "unit": "nM"}, {"measurement": "EC20 Any effect", "setting": "Danio rerio embryo [16]; exposure time: 4 dpf", "result": 56, "unit": "nM"}, {"measurement": "EC50 Lack of SB", "setting": "Danio rerio embryo [17]", "result": 50, "unit": "nM"}, {"measurement": "EC50 Body length Decrease", "setting": "Danio rerio embryo [18]", "result": 45, "unit": "nM"}, {"measurement": "EC20 Bladder size Decrease", "setting": "Danio rerio embryo [19]", "result": 47, "unit": "nM"}, {"measurement": "EC50 Any effect", "setting": "Danio rerio embryo [20]; exposure time: 2 dpf", "result": 32, "unit": "nM"}, {"measurement": "EC50 Any effect", "setting": "Danio rerio embryo [20]; exposure time: 4 dpf", "result": 70, "unit": "nM"}, {"measurement": "EC20 Curvature Increase", "setting": "Danio rerio embryo [21]; exposure time: 2 dpf", "result": 27, "unit": "nM"}, {"measurement": "EC20 Curvature Increase", "setting": "Danio rerio embryo [21]; exposure time: 4 dpf", "result": 68, "unit": "nM"}, {"measurement": "EC20 Otolith-eye distance Decrease", "setting": "Danio rerio embryo [22]", "result": 77, "unit": "nM"}, {"measurement": "EC10 Otolith-eye distance Decrease", "setting": "Danio rerio embryo [23]", "result": 70, "unit": "nM"}, {"measurement": "EC10 Any effect", "setting": "Danio rerio embryo [24]; exposure time: 2 dpf", "result": 14, "unit": "nM"}, {"measurement": "EC10 Any effect", "setting": "Danio rerio embryo [24]; exposure time: 4 dpf", "result": 49, "unit": "nM"}, {"measurement": "EC20 Pericard size Increase", "setting": "Danio rerio embryo [25]", "result": 73, "unit": "nM"}, {"measurement": "EC20 Head trunk angle Decrease", "setting": "Danio rerio embryo [26]", "result": 38, "unit": "nM"}, {"measurement": "EC20 Eye-jaw distance Decrease", "setting": "Danio rerio embryo [27]", "result": 62, "unit": "nM"}, {"measurement": "EC50 Pericard size Increase", "setting": "Danio rerio embryo [28]", "result": 85, "unit": "nM"}, {"measurement": "EC20 Lack of SB", "setting": "Danio rerio embryo [29]", "result": 47, "unit": "nM"}, {"measurement": "EC10 Head trunk angle Decrease", "setting": "Danio rerio embryo [30]", "result": 37, "unit": "nM"}, {"measurement": "EC20 Body length Decrease", "setting": "Danio rerio embryo [31]", "result": 35, "unit": "nM"}]}]}
